Test results taken from paper PMC6357004 (Viruses, 2018).

Legend:
[1] = biological target: neuraminidase (NA) of recombinant influenza B/Phuket/3073/2013 WT virus (Influenza B virus, UniProt A0A1S5RAG6); assay type: biochemical, influenza B/Phuket/3073/2013 virus
N294S mutant = conditions: cited from earlier work

neuraminidase (NA) of recombinant influenza B/Phuket/3073/2013 WT virus, sequence (A0A1S5RAG6 entry or part of it, added parts left off): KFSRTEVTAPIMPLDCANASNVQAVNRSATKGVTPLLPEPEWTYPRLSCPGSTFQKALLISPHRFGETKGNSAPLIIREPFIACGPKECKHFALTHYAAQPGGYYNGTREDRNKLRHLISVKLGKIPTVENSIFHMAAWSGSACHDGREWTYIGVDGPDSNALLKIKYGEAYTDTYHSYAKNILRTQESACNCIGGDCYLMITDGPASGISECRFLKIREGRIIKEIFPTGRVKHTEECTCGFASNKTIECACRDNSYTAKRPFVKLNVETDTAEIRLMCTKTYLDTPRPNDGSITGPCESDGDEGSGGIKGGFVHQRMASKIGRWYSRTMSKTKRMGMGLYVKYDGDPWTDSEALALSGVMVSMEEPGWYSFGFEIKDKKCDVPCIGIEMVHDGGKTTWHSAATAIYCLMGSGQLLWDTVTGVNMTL

| SMILES | Folds (fold changes according to WT virus) [1] [fold] | IC50 ([1]; mean of two independent experiments in duplicate, read-out: Neuraminidase Inhibitors IC50 values) [nM] | susceptibility phenotype (N294S mutant) |
| --- | --- | --- | --- |
| CCC(CC)[C@H](NC(C)=O)[C@@H]1[C@H](O)[C@@H](C(=O)O)C[C@H]1N=C(N)N [Peramivir, peramivir] | 1 | 0.74 |  |
| CC(=O)N[C@H]1[C@H]([C@H](O)[C@H](O)CO)OC(C(=O)O)=C[C@@H]1N=C(N)N [Zanamivir, zanamivir] |  |  | susceptible |
